This assay has as its target T1, AR protein (Homo sapiens, UniProt P10275).
T1 construct: endogenous in cells; host or cells: VCaP
T1 sequence (P10275 1-920): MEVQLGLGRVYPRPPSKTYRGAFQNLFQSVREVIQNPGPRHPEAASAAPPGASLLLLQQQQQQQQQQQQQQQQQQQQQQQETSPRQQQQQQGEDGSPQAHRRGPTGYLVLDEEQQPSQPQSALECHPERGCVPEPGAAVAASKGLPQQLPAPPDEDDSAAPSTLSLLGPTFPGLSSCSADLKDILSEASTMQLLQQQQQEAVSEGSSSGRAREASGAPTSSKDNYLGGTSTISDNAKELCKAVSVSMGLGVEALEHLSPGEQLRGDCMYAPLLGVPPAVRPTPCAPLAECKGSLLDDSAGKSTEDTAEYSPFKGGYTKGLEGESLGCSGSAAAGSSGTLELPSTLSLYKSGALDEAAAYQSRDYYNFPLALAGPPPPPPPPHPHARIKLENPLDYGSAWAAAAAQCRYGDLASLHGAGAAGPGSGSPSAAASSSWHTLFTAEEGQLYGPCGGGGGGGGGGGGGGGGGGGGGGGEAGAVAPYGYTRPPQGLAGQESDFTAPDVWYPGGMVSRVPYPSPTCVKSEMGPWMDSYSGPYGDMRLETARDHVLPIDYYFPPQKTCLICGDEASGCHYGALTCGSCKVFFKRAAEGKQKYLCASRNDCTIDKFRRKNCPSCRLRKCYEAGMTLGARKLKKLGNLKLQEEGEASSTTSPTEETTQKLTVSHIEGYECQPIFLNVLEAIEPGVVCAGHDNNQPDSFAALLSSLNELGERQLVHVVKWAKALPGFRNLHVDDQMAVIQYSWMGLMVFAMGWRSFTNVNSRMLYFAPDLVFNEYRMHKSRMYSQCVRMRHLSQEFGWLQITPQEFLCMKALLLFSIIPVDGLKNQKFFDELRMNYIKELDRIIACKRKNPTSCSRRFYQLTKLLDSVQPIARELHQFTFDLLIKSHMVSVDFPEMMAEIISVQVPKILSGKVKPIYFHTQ
Put plainly: AR protein degradation by western blotting in VCaP cells. The format is cell-based. The method, then:
The appropriate cell line, e.g., prostate cancer LNCaP, Vcap, or MDA-MB-453, cell line, was treated with Compounds of the Disclosure. The treated cells were lysed with RIPA buffer. The AR level in the cell lysates was examined by western blotting and a specific AR antibody (ab 194196, Abeam, Cambridge, Mass. 02139) with concentration of 1:20,000. GAPDH was used as a loading control.
Bands were quantified with ImageJ software. The relative numbers of each band obtained from normalization with its corresponding GAPDH level were compared with Prism 8 software. The DC50 values were produced from Prism 8, and the DC90 values were calculated with an equation=Bottom+(Top−Bottom)/(1+10^((Log EC50−X)*HillSlope) based on DC50 and Hillslope values.
The amount of AR protein degradation in LNCap, VCap, and MDA-MB-453 cells caused representative Compounds of the Disclosure at the concentrations indicated is presented in Table 4.

Turning to `N#Cc1ccc(OC2CCCN(C(=O)c3ccc(N4CCC(N5CCN(c6ccc7c(c6)C(=O)N(C6CCC(=O)NC6=O)C7=O)CC5)CC4)cc3)CC2)cc1Cl` (stereo not drawn) [compound 337, 2-chloro-4-((1-(4-(4-(4-(2-(2,6-dioxopiperidin-3-yl)-1,3-dioxoisoindolin-5-yl)piperazin-1-yl)piperidin-1-yl)benzoyl)azepan-4-yl)oxy)benzonitrile], the “% AR protein degradation in VCaP Cells” value is, setting by setting: (0.001 μM) 18%; (0.01 μM) 12%; (0.1 μM) 9%; (1 μM) 29%.
For `N#Cc1ccc(OC2CCN(C(=O)c3ccc(N4CCC(N5CCN(c6ccc7c(c6)C(=O)N(C6CCC(=O)NC6=O)C7=O)CC5)CC4)cc3)CC2)cc1Cl` (stereo not drawn) [compound 336, 2-chloro-4-((1-(4-(4-(4-(2-(2,6-dioxopiperidin-3-yl)-1,3-dioxoisoindolin-5-yl)piperazin-1-yl)piperidin-1-yl)benzoyl)piperidin-4-yl)oxy)benzonitrile], the “% AR protein degradation in VCaP Cells” value is, setting by setting: (0.001 μM) 3%; (0.01 μM) −5%; (0.1 μM) −5%; (1 μM) 4%.
As for `N#Cc1ccc(-c2ccn(Cc3ccc(C(=O)N4CCN(C5CCN(c6ccc7c(c6)C(=O)N(C6CCC(=O)NC6=O)C7=O)CC5)CC4)cc3)n2)cc1Cl` (stereo not drawn) [compound 338, 2-chloro-4-(1-(4-(4-(1-(2-(2,6-dioxopiperidin-3-yl)-1,3-dioxoisoindolin-5-yl)piperidin-4-yl)piperazine-1-carbonyl)benzyl)-1H-pyrazol-3-yl)benzonitrile], the “% AR protein degradation in VCaP Cells” value is recorded as −1% (0.001 μM), −12% (0.01 μM), 8% (0.1 μM) and 93% (1 μM).

For the origin of these results see patent US20230257365A1, “SMALL MOLECULE ANDROGEN RECEPTOR PROTEIN DEGRADERS” (THE REGENTS OF THE UNIVERSITY OF MICHIGAN, priority 2020, published 2023).
